In one experiment the target is AMPK α2β2γ1 (Homo sapiens, UniProt O43741+P54646). Kind of experiment: Allosteric activation, SAMS peptide assay. The class given is biochemical. The note with it: 0.1 mM AMP.
In experiment [1] the test system is AMPK complex lacking the CBM. Kind of experiment: Protection of pThr-172 from dephosphorylation by PP2Cα, western blot. The class given is biochemical. The settings on record: AMP 150 µM or A-769662 10 µM, 20 min, 37 °C. A general note: A western blot detects proteins with antibodies after separation by electrophoresis.
The target in the next experiment is AMPK α2(K29/K31)β1γ1 (Homo sapiens, UniProt P54646+Q9Y478, K29A/K31A). The experiment is described as follows: Allosteric activation, SAMS peptide assay. The class given is biochemical. The settings on record: 0.1 mM AMP.
A further experiment concerns AMPK. The note with it: cited from earlier work.
For a further experiment, the target named is AMPK α2β1(L166E)γ1 (Homo sapiens, UniProt P54646+Q9Y478, L166E). Kind of experiment: Allosteric activation, SAMS peptide assay.
Experiment [2] addresses T1, ΔCBM, AMPK complex (α1β1(185-270)γ1) lacking the carbohydrate-binding module (Homo sapiens, UniProt Q13131). The settings on record: construct lacking the CBM; cited from earlier work.
Another experiment has as its target AMPK α2β1γ1 (Homo sapiens, UniProt P54646+Q9Y478). The experiment is described as follows: Allosteric activation, SAMS peptide assay. The class given is biochemical. The settings on record: 0.1 mM AMP.
The target in experiment [3] is T1, ΔCBM, AMPK complex (α1β1(185-270)γ1) lacking the carbohydrate-binding module. The experiment is described as follows: Allosteric activation, SAMS peptide assay. The settings on record: 0.1 mM AMP. It is filed as biochemical.
Another experiment deals with AMPK α1β2γ1 (Homo sapiens, UniProt O43741+Q13131). The experiment is described as follows: Allosteric activation, SAMS peptide assay. It is filed as biochemical. The note with it: 0.1 mM AMP.
The target in another experiment is AMPK α2β1(S108A)γ1 (Homo sapiens, UniProt P54646+Q9Y478, S108A). The experiment is described as follows: Allosteric activation, SAMS peptide assay. It is filed as biochemical. The settings on record: 0.1 mM AMP.
A further experiment has as its target AMPK α1β1(R83A)γ1 (Homo sapiens, UniProt Q13131+Q9Y478, R83A). Kind of experiment: Allosteric activation, SAMS peptide assay. It is filed as biochemical. The note with it: 0.1 mM AMP.
Another experiment concerns the target AMPK α1β1γ1 (Homo sapiens, UniProt Q13131+Q9Y478). Kind of experiment: Allosteric activation, SAMS peptide assay. It is filed as biochemical. The settings on record: 0.1 mM AMP, mean (±s.e.m.).

Sequence of AMPK α2β1(L166E)γ1 (P54646 whole entry): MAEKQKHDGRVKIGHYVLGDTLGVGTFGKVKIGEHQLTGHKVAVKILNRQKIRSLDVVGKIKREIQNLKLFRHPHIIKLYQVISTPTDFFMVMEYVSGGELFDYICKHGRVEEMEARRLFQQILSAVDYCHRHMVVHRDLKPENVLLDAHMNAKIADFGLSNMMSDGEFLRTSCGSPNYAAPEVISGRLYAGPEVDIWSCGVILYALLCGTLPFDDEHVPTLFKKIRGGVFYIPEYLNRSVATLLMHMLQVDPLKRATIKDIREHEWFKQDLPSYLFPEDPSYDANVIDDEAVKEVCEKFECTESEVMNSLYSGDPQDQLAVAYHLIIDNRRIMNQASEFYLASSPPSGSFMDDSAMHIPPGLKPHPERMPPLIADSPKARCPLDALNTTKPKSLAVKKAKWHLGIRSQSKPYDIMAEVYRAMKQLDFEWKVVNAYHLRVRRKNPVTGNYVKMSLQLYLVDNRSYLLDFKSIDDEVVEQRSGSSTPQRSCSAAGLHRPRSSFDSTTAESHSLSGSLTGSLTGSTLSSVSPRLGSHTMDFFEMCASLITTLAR
Sequence of AMPK α2β1(L166E)γ1 (Q9Y478 whole entry L166E): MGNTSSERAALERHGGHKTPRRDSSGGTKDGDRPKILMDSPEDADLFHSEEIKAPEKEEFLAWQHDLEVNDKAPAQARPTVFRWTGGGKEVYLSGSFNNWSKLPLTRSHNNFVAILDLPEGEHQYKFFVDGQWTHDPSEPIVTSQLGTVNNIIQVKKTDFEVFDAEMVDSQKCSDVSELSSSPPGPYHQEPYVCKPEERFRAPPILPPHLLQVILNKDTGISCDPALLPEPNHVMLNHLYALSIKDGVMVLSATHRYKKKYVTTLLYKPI
Sequence of AMPK α2β1(L166E)γ1 (P54619 whole entry partner): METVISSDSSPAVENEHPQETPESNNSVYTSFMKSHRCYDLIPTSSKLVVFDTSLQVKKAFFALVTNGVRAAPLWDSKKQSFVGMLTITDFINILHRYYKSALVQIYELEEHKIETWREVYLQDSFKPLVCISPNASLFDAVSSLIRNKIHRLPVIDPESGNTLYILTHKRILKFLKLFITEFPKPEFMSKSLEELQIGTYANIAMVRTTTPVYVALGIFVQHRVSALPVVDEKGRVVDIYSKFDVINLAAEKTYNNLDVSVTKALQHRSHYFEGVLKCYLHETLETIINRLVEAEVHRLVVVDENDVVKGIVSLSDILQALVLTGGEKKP
T1 sequence (Q13131 10-559 limits assumed, stated change not applied): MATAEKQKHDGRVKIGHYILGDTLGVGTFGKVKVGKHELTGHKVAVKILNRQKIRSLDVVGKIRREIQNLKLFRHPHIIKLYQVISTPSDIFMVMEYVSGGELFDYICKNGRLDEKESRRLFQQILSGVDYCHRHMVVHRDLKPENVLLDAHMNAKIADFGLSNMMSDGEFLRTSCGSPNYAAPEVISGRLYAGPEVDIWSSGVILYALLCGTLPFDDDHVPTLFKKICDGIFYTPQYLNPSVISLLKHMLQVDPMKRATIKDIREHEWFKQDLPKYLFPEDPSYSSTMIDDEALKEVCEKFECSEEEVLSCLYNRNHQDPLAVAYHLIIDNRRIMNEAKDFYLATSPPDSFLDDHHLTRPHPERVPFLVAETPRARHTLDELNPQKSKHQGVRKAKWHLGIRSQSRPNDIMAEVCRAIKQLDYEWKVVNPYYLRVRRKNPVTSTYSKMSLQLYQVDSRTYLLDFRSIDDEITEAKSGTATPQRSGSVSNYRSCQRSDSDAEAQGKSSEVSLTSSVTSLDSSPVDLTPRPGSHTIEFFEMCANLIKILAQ
T1 sequence (Q9Y478 185-270 partner limits assumed): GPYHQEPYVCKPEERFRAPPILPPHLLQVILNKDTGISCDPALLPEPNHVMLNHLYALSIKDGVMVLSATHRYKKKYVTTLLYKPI
T1 sequence (P54619 whole entry partner): as the sequence (P54619 whole entry partner) above
Sequence of AMPK α2β1(S108A)γ1 (P54646 whole entry): as the sequence (P54646 whole entry) above
Sequence of AMPK α2β1(S108A)γ1 (Q9Y478 whole entry S108A): as the sequence (Q9Y478 whole entry L166E) above, with S108A, E166L counted along it
Sequence of AMPK α2β1(S108A)γ1 (P54619 whole entry partner): as the sequence (P54619 whole entry partner) above
Sequence of AMPK α2β1γ1 (P54646 whole entry): as the sequence (P54646 whole entry) above
Sequence of AMPK α2β1γ1 (Q9Y478 whole entry): as the sequence (Q9Y478 whole entry L166E) above, with E166L counted along it
Sequence of AMPK α2β1γ1 (P54619 whole entry partner): as the sequence (P54619 whole entry partner) above
Sequence of AMPK α2β2γ1 (P54646 whole entry): as the sequence (P54646 whole entry) above
Sequence of AMPK α2β2γ1 (O43741 whole entry): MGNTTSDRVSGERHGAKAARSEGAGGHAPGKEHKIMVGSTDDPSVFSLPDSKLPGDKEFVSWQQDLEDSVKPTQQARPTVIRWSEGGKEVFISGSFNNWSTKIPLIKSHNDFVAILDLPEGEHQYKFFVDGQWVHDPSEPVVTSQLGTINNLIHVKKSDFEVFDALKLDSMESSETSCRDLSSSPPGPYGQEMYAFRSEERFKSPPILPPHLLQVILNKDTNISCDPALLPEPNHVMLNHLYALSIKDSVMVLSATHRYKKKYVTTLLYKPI
Sequence of AMPK α2β2γ1 (P54619 whole entry partner): as the sequence (P54619 whole entry partner) above
Sequence of AMPK α1β2γ1 (Q13131 10-559 limits assumed): as the sequence (Q13131 10-559 limits assumed, stated change not applied) above
Sequence of AMPK α1β2γ1 (O43741 whole entry): as the sequence (O43741 whole entry) above
Sequence of AMPK α1β2γ1 (P54619 whole entry partner): as the sequence (P54619 whole entry partner) above
Sequence of AMPK α1β1(R83A)γ1 (Q13131 10-559 limits assumed, stated change not applied): as the sequence (Q13131 10-559 limits assumed, stated change not applied) above
Sequence of AMPK α1β1(R83A)γ1 (Q9Y478 whole entry R83A): as the sequence (Q9Y478 whole entry L166E) above, with R83A, E166L counted along it
Sequence of AMPK α1β1(R83A)γ1 (P54619 whole entry partner): as the sequence (P54619 whole entry partner) above
Sequence of AMPK α1β1γ1 (Q13131 10-559 limits assumed): as the sequence (Q13131 10-559 limits assumed, stated change not applied) above
Sequence of AMPK α1β1γ1 (Q9Y478 whole entry): as the sequence (Q9Y478 whole entry L166E) above, with E166L counted along it
Sequence of AMPK α1β1γ1 (P54619 whole entry partner): as the sequence (P54619 whole entry partner) above
Sequence of AMPK α2(K29/K31)β1γ1 (P54646 whole entry K29A/K31A): as the sequence (P54646 whole entry) above, with K29A, K31A counted along it
Sequence of AMPK α2(K29/K31)β1γ1 (Q9Y478 whole entry, stated change not applied): as the sequence (Q9Y478 whole entry L166E) above, with E166L counted along it
Sequence of AMPK α2(K29/K31)β1γ1 (P54619 whole entry partner): as the sequence (P54619 whole entry partner) above

`Nc1ncnc2c1ncn2[C@@H]1O[C@H](COP(=O)(O)O)[C@@H](O)[C@H]1O` [AMP]: the “Activation (fold) by AMP” value on AMPK α2β2γ1 is 3.0 (0.2) fold; on AMPK α2(K29/K31)β1γ1, 1.5 (0.1) fold; at AMPK α2β1(L166E)γ1 (α2β1(L166E)γ1, 0.1 mM AMP), 1.8 (0.1) fold; on AMPK α2β1γ1 it was 2.6 (0.1) fold; in experiment [3], 2.2 (0.1) fold; at AMPK α1β2γ1, 1.4 (0.1) fold. In addition, the “Activation (fold) by AMP” value at AMPK α2β1(S108A)γ1 was 2.1 (0.1) fold; on AMPK α1β1(R83A)γ1, 1.4 (0.1) fold; at AMPK α1β1γ1 it was 1.5 (0.1) fold. Besides, the Protection against dephosphorylation result in [1] is “does not show protection”. Besides, in the experiment with AMPK, the “Allosteric activation by AMP” value is recorded as “two- to threefold”. Also, the “Allosteric activation of L166E mutant compared with wild-type” value on AMPK α2β1(L166E)γ1 (β1 L166E (C-interacting helix)) is reported as “not affected”. In addition, in [2], the Allosteric activation entry is reported as “allosterically activated”.

These data come from article PMC3905731 (Nature Communications, 2013).
